Measurements taken from PubChem BioAssay (NCI).
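1) Cells in 96-well plates. 2) Compound, 48 h, 5 concentrations. 3) Linear interpolation between surrounding doses. 4) Unreached endpoint = highest concentration. At the TGI there is no net growth.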

Key:
Test in all cases: NCI-60 cell line screen, 48 h
[1] = system: KM12 colon
[2] = system: 786-0 renal
[3] = system: CCRF-CEM leukemia
[4] = system: SW-620 colon
[5] = system: HCC-2998 colon
[6] = system: HOP-92 NSCLC
[7] = system: OVCAR-4 ovarian
[8] = system: EKVX NSCLC
[9] = system: PC-3 prostate
[10] = system: SNB-19 CNS
[11] = system: MDA-MB-435
[12] = system: HCT-15 colon
[13] = system: RPMI-8226 leukemia
[14] = system: MDA-MB-231 breast
[15] = system: SK-OV-3 ovarian
[16] = system: CAKI-1 renal
[17] = system: SN12C renal
[18] = system: LOX IMVI melanoma
[19] = system: NCI/ADR-RES ovarian
[20] = system: NCI-H460 lung
[21] = system: UACC-257 melanoma
[22] = system: SR leukemia
[23] = system: NCI-H226 lung
[24] = system: UACC-62 melanoma
[25] = system: OVCAR-8 ovarian
[26] = system: HCT-116 colon
[27] = system: IGROV1 ovarian
[28] = system: ACHN renal
[29] = system: U251 CNS
[30] = system: SK-MEL-5 melanoma
[31] = system: MCF7 breast
[32] = system: COLO 205 colon
[33] = system: MOLT-4 leukemia
[34] = system: SF-539 CNS
[35] = system: SNB-75 CNS
[36] = system: BT-549 breast
[37] = system: SF-295 CNS
[38] = system: RXF 393 renal
[39] = system: A498 renal
[40] = system: TK-10 renal
[41] = system: HT29 colon
[42] = system: HOP-62 NSCLC
[43] = system: DU-145 prostate
[44] = system: SK-MEL-28 melanoma
[45] = system: K-562 leukemia
[46] = system: OVCAR-3 ovarian
[47] = system: T-47D breast
[48] = system: A549 NSCLC
[49] = system: MALME-3M melanoma
[50] = system: M14 melanoma
[51] = system: MDA-N
[52] = system: NCI-H522 lung
[53] = system: SF-268 CNS
[54] = system: OVCAR-5 ovarian
[55] = system: NCI-H23 lung
[56] = system: UO-31 renal
[57] = system: HS 578T breast
[58] = system: HL-60(TB) leukemia
[59] = system: SK-MEL-2 melanoma

## O=C(CSc1nnc(SCC(=O)NN=C2CCCCC2)s1)NN=C1CCCCC1
[1]
  TGI: > 100 µM
[2]
  TGI: > 100 µM
[3]
  TGI: > 100 µM
[4]
  TGI: > 100 µM
[5]
  TGI: > 100 µM
[6]
  TGI: > 100 µM
[7]
  TGI: > 100 µM
[8]
  TGI: > 100 µM
[9]
  TGI: > 100 µM
[10]
  TGI: > 100 µM
[11]
  TGI: > 100 µM
[12]
  TGI: > 100 µM
[13]
  TGI: > 100 µM
[14]
  TGI: > 100 µM
[15]
  TGI: > 100 µM
[16]
  TGI: > 100 µM
[17]
  TGI: > 100 µM
[18]
  TGI: > 100 µM
[19]
  TGI: > 100 µM
[20]
  TGI: > 100 µM
[21]
  TGI: > 100 µM
[22]
  TGI: > 100 µM
[23]
  TGI: > 100 µM
[24]
  TGI: > 100 µM
[25]
  TGI: > 100 µM
[26]
  TGI: > 100 µM
[27]
  TGI: > 100 µM
[28]
  TGI: > 100 µM
[29]
  TGI: > 100 µM
[30]
  TGI: > 100 µM
[31]
  TGI: > 100 µM
[32]
  TGI: > 100 µM
[33]
  TGI: > 100 µM
[34]
  TGI: > 100 µM
[35]
  TGI: > 100 µM
[36]
  TGI: > 100 µM
[37]
  TGI: > 100 µM
[38]
  TGI: > 100 µM
[39]
  TGI: > 100 µM
[40]
  TGI: > 100 µM
[41]
  TGI: > 100 µM
[42]
  TGI: > 100 µM
[43]
  TGI: > 100 µM
[44]
  TGI: > 100 µM
[45]
  TGI: > 100 µM
[46]
  TGI: > 100 µM
[47]
  TGI: > 100 µM
[48]
  TGI: > 100 µM
[49]
  TGI: > 100 µM
[50]
  TGI: > 100 µM
[51]
  TGI: > 100 µM
[52]
  TGI: > 100 µM
[53]
  TGI: > 100 µM
[54]
  TGI: > 100 µM
[55]
  TGI: > 100 µM
[56]
  TGI: > 100 µM

## OC(c1ccoc1)c1cc2ccccc2s1 (stereo unspecified)
[57]
  TGI: > 10 µM
[1]
  TGI: > 10 µM
[2]
  TGI: > 10 µM
[3]
  TGI: > 10 µM
[4]
  TGI: > 10 µM
[5]
  TGI: > 10 µM
[6]
  TGI: > 10 µM
[7]
  TGI: > 10 µM
[8]
  TGI: > 10 µM
[9]
  TGI: > 10 µM
[10]
  TGI: > 10 µM
[11]
  TGI: > 10 µM
[12]
  TGI: > 10 µM
[13]
  TGI: > 10 µM
[14]
  TGI: > 10 µM
[15]
  TGI: > 10 µM
[16]
  TGI: > 10 µM
[17]
  TGI: > 10 µM
[18]
  TGI: > 10 µM
[19]
  TGI: > 10 µM
[20]
  TGI: > 10 µM
[58]
  TGI: > 10 µM
[21]
  TGI: > 10 µM
[22]
  TGI: > 10 µM
[23]
  TGI: > 10 µM
[24]
  TGI: > 10 µM
[25]
  TGI: > 10 µM
[26]
  TGI: > 10 µM
[27]
  TGI: > 10 µM
[28]
  TGI: > 10 µM
[29]
  TGI: > 10 µM
[30]
  TGI: > 10 µM
[31]
  TGI: > 10 µM
[32]
  TGI: > 10 µM
[33]
  TGI: > 10 µM
[34]
  TGI: > 10 µM
[35]
  TGI: > 10 µM
[37]
  TGI: > 10 µM
[38]
  TGI: > 10 µM
[40]
  TGI: > 10 µM
[41]
  TGI: > 10 µM
[42]
  TGI: > 10 µM
[43]
  TGI: > 10 µM
[44]
  TGI: > 10 µM
[45]
  TGI: > 10 µM
[46]
  TGI: > 10 µM
[47]
  TGI: > 10 µM
[48]
  TGI: > 10 µM
[50]
  TGI: > 10 µM
[51]
  TGI: > 10 µM
[52]
  TGI: > 10 µM
[53]
  TGI: > 10 µM
[59]
  TGI: > 10 µM
[54]
  TGI: > 10 µM
[55]
  TGI: > 10 µM
[56]
  TGI: > 10 µM

## Cc1cc2c(O)c(c1)COCc1cc(C)cc(c1O)COCc1cc(C)cc(c1O)COC2
[1]
  TGI: > 100 µM
[2]
  TGI: > 100 µM
[3]
  TGI: > 100 µM
[4]
  TGI: > 100 µM
[5]
  TGI: > 100 µM
[6]
  TGI: > 100 µM
[7]
  TGI: > 100 µM
[8]
  TGI: > 100 µM
[9]
  TGI: > 100 µM
[10]
  TGI: > 100 µM
[11]
  TGI: > 100 µM
[12]
  TGI: > 100 µM
[13]
  TGI: > 100 µM
[14]
  TGI: > 100 µM
[15]
  TGI: > 100 µM
[16]
  TGI: > 100 µM
[17]
  TGI: > 100 µM
[19]
  TGI: > 100 µM
[20]
  TGI: > 100 µM
[58]
  TGI: > 100 µM
[21]
  TGI: > 100 µM
[22]
  TGI: > 100 µM
[23]
  TGI: > 100 µM
[24]
  TGI: > 100 µM
[25]
  TGI: > 100 µM
[26]
  TGI: > 100 µM
[28]
  TGI: > 100 µM
[29]
  TGI: > 100 µM
[31]
  TGI: > 100 µM
[32]
  TGI: > 100 µM
[33]
  TGI: > 100 µM
[34]
  TGI: > 100 µM
[35]
  TGI: > 100 µM
[36]
  TGI: > 100 µM
[37]
  TGI: > 100 µM
[38]
  TGI: > 100 µM
[39]
  TGI: > 100 µM
[41]
  TGI: > 100 µM
[42]
  TGI: > 100 µM
[43]
  TGI: > 100 µM
[44]
  TGI: > 100 µM
[45]
  TGI: > 100 µM
[46]
  TGI: > 100 µM
[47]
  TGI: > 100 µM
[48]
  TGI: > 100 µM
[49]
  TGI: > 100 µM
[50]
  TGI: > 100 µM
[51]
  TGI: > 100 µM
[52]
  TGI: > 100 µM
[53]
  TGI: > 100 µM
[59]
  TGI: > 100 µM
[54]
  TGI: > 100 µM
[55]
  TGI: > 100 µM
[56]
  TGI: > 100 µM
